Measurements reported in patent US20230416849A1, “METHODS FOR DETECTING VIRAL RNA USING ATP-RELEASING NUCLEOTIDES” (priority 2020, published 2023).

Target: luciferase (Photinus pyralis, UniProt P08659)
Test: Reactivity of apyrase ATP-depleted nucleotide stocks with luciferase (background signal)
Assay type: biochemical
Excerpt: ARNs were investigated as a source of background signal. There are two possible sources of background resulting from ARNs: (1) residual ATP contamination from the insufficient purification, and (2) the potential for these nucleotides to be accepted as substrates by luciferase. While ATP contamination can be removed, the kinetics of a nucleotide to react with luciferase is intrinsic to the molecule and thus much more difficult to manipulate. Apyrase was used to deplete nucleotide stocks of ATP in order to compare their reactivity with luciferase. […] However, dCp4A had high levels of ATP contamination.

Sequence of luciferase (P08659 whole entry): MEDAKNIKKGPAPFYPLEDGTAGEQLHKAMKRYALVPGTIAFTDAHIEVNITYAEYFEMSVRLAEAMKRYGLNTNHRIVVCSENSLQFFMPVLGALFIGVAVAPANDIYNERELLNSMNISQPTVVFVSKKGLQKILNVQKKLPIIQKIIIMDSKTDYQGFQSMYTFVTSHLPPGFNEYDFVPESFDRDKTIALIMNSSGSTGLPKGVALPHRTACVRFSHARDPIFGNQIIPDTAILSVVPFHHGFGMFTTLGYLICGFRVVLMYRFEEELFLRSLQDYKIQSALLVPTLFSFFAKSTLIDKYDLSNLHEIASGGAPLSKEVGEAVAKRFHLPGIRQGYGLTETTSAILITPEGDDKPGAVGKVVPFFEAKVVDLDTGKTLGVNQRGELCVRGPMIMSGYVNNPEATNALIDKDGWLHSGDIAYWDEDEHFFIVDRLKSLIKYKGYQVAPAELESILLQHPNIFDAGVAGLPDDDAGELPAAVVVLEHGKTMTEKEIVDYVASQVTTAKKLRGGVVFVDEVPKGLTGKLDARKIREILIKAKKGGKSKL

Compound | activity with luciferase compared with pyrimidine counterparts (dCp4A and dTp4A)
Nc1nc2c(ncn2[C@H]2C[C@H](O)[C@@H](COP(=O)(O)OP(=O)(O)OP(=O)(O)OP(=O)(O)OC[C@H]3O[C@@H](n4cnc5c(N)ncnc54)[C@H](O)[C@@H]3O)O2)c(=O)[nH]1 [dGp4A, deoxyguanosine-5′-tetraphosphate-P4-5′-adenosine] | higher activity
Nc1ncnc2c1ncn2[C@@H]1O[C@H](COP(=O)(O)OP(=O)(O)OP(=O)(O)OP(=O)(O)OC[C@H]2O[C@@H](n3cnc4c(N)ncnc43)C[C@@H]2O)[C@@H](O)[C@H]1O [dAp4A, deoxyadenosine-5′-tetraphosphate-P4-5′-adenosine] | higher activity
